Experimental findings from US9447408B2, “Method of efficiently establishing induced pluripotent stem cells” (Kyoto University, priority 2010, dated 2016) are described below.

This experiment has as its system Mouse embryonic fibroblasts (MEFs). Briefly: iPS cell establishment from MEFs, 3 genes (Oct3/4, Sox2, Klf4) introduced, with p38 inhibitors. The format is cell-based. Particulars: 10 μM inhibitor, 2×10^4 cells/10 cm dish, FIG. 2. As to the method:
Three genes were introduced using a retrovirus by the same experimental procedures as the above. The cells were cultured at a cell density of 2×10^4 cells/10 cm dish, with the addition of 10 μM of SB202190, SB239063, or SB203580 (Calbiochem Company) to the medium per the schedule shown below, and the establishment efficiency was compared. • 1. Oct3/4, Sox2, Klf4, each derived from mouse, saline • 2. Oct3/4, Sox2, Klf4, each derived from mouse, DMSO • 3. Oct3/4, Sox2, Klf4, each derived from mouse, SB202190 10 μM (Day 1-4) • 4. Oct3/4, Sox2, Klf4, each derived from mouse, SB202190 10 μM (Day 1-8) • 5. Oct3/4, Sox2, Klf4, each derived from mouse, SB202190 10 μM (Day 9-16) • 6. Oct3/4, Sox2, Klf4, each derived from mouse, SB202190 10 μM (Day 1-16) • 7. Oct3/4, Sox2, Klf4, each derived from mouse, SB239063 10 μM (Day 1-4) • 8. Oct3/4, Sox2, Klf4, each derived from mouse, SB239063 10 μM (Day 1-8) • 9. Oct3/4, Sox2, Klf4, each derived from mouse, SB239063 10 μM (Day 9-16) • 10. Oct3/4, Sox2, Klf4, each derived from mouse, SB239063 10 μM (Day 1-16) • 11. Oct3/4, Sox2, Klf4, each derived from mouse, SB203580 10 μM (Day 1-4) • 12. Oct3/4, Sox2, Klf4, each derived from mouse, SB203580 10 μM (Day 1-8) • 13. Oct3/4, Sox2, Klf4, each derived from mouse, SB203580 10 μM (Day 9-16) • 14. Oct3/4, Sox2, Klf4, each derived from mouse, SB203580 10 μM (Day 1-16),

In the case of `COc1nccc(-c2c(-c3ccc(F)cc3)ncn2[C@H]2CC[C@H](O)CC2)n1` [SB239063, trans-1-(4-Hydroxycyclohexyl)-4-(4-fluorophenyl)-5-(2-methoxypyrimidin-4-yl)imidazole], the “number of Nanog-GFP-positive colonies compared with physiological saline or DMSO” value was “increased” and the “total number of colonies compared with physiological saline or DMSO” value was “increased”.
